# From a melting point compilation (Tetko et al.; mined from patent text by program, amines drawn as free bases though some values may be those of a salt)
row,melting point [°C],SMILES
1,112 to 128,CC(=O)N(C(C)=O)C(C)=C1CC2C3CC4C2C4C13 (centres undefined)
2,168,COc1ccc(-n2nc(OC(C)C)cc2-c2ccc(OCCNS(C)(=O)=O)cc2)cc1
3,113,COC(=O)COc1cc(C)c(SCc2sc(-c3ccc(C(F)(F)F)cc3)nc2C)c(C)c1
4,141 to 142,Cc1cc(SCc2ccc(OCc3ccc(OC(F)(F)F)cc3)cc2)ccc1OCC(=O)O
5,214 to 216,c1ccc(C2=NC(c3ccccn3)(c3ccccn3)N=C2c2ccccc2)cc1
6,130 to 131,CC(C)(C)OC(=O)Nc1cccc(C(=O)NCCC(=O)OCc2ccccc2)c1
7,197 to 198,O=C1N[C@H](Cc2ccc(F)cc2)[C@H](c2ccc(F)cc2)O1 (racemic)
8,240 to 243,Nc1ncccc1-c1nc2ccc(Cl)nc2n1-c1ccc(CNC(=O)c2cccc(F)c2)cc1
9,198 to 200,CC[C@H](Cn1cnnn1)n1cnc2cc3c(=O)n([C@H](C)Cn4ncnn4)nnc3cc2c1=O
10,214,Nc1ccc(Cl)c(C(=O)NCC23CC4CC(CC(C4)C2)C3)c1
11,205 to 206,CSC1=C(Sc2ccc(C)cc2)CC2C3CCC4=CC(=O)C=CC4(C)C3(F)C(O)CC12C (centres undefined)
12,258,CC(C)Cn1c(=O)n(C)c(=O)c2c(Br)c(C(=O)c3nc4ccccc4n3C)sc21
13,67 to 68,CCCN(CCC)C(=O)Cc1ccc(OCc2ccccc2)c([N+](=O)[O-])c1
14,275 to 278,O=c1[nH]c2cc(Cl)cc(Cl)c2c(=O)n1Cc1ccccc1F
15,200 to 203,CN1CCN(c2cccc(-c3cnn4c(N)c(-c5ccccc5Cl)cnc34)c2)CC1
16,148 to 154,CCOC(=O)C(=O)CC(=O)C=Cc1ccc([N+](=O)[O-])cc1
17,205 to 207,CC1OC2(CCN(c3nc(=O)c4cc(C(F)(F)F)cc([N+](=O)[O-])c4s3)CC2)OC1C (centres undefined)
18,214 to 215,O=C(O)c1ccc(OCC2CN(c3ccccc3)C(=S)O2)cc1 (centres undefined)
19,170 to 172,Cn1cc(C2=C(c3c4n(c5ccccc35)CCN(C(=O)CNC(=O)C(F)(F)F)C4)C(=O)NC2=O)c2ccccc21
20,212 to 215,Fc1cc(F)c2c(c1)CCC2n1cc[nH]c1=S (centres undefined)
21,87 to 88,O=C(Cl)c1ccc2ccccc2c1O
22,226 to 227,CCNc1nnc(-c2ccc3ncn(-c4ccc(SC)cc4)c3c2)o1
23,150 to 152,Cc1ccc(-c2ccc([C@H](C)N3CC[C@](CC(C)(C)O)(c4ccccc4)OC3=O)cc2)nn1

row,melting point [°C],SMILES
1,116,O=C(O)CCCCCNC(=O)OCC1c2ccccc2-c2ccccc21
2,220 to 222,Cn1nc(-c2nc(Br)c(N)nc2-c2ccccc2)ccc1=O
3,231 to 232,Cc1ccc(-n2ncc(C(=O)O)c2C(N)=O)cc1C
4,103 to 104,CCOc1cccc(-c2cc3n(n2)CCc2ccccc2-3)c1
5,100 to 110,CCCCc1nc(Cl)c(CC(=O)O)c(Cc2ccc(-c3ccccc3C(=O)O)cc2)n1
6,107 to 108,CCCCCS(=O)(=O)NC(=O)CCc1ccc(OCCOC)cc1OCc1ccc(Cl)cc1Cl
7,156 to 157,O=C(N[C@@H]1CN(C2CCCCC2)C[C@H]1O)c1ccc([N+](=O)[O-])cc1 (relative stereo)
8,155 to 158,CC(=O)CC(=O)C=Cc1c[nH]c2ccccc12
9,205 to 207,COc1ccc2c(c1)c(Cc1nc(-c3ccc([N+](=O)[O-])cc3)cs1)c(C)n2Cc1ccc(Br)cc1
10,65 to 68,OC(CNC1CCc2ccccc2C1)COc1cccc2[nH]ccc12 (centres undefined)
11,240 to 241,CC1(C)CCC(C)(C)c2cc(C(N)C(=O)Nc3ccc(C(=O)O)c(O)c3)ccc21 (centres undefined)
12,95,CCCCC(C(=O)OC)c1cccc(C(=O)c2cc3cc(C(=O)OC)sc3s2)c1 (centres undefined)
13,153 to 155,CCCCc1nc2c(N)nc3ccccc3c2n1CCCCCCCCNC(=O)Nc1ccccc1
14,138 to 139,Nc1nc(F)nc(OC(F)(F)F)n1
15,185 to 186,OC(c1ccccc1)(c1ccccc1-c1ccccc1)C1CCNCC1 (centres undefined)
16,85 to 90,COc1cccc(OC)c1N(COC(C)C)C(=O)CCl
17,164 to 165,N#CCCNC(=O)c1cccc(-c2ccnc3cc(Cc4cccc(C(F)(F)F)c4)oc23)c1
18,240 to 244,CCc1cccc(C)c1CNc1c(NC(C)(C)C)c(=O)c1=O
19,204 to 205,CO/C(=C\C=C\c1cc2ccccc2[nH]1)C(=O)NCc1ccccc1
20,277 to 279,O=C(NCc1ccc(Cl)cc1)c1cnc2c(F)cc(C#CCO)cc2c1O
21,134 to 136,CCOCCOc1ccccc1COc1ccc2c(c1)C=C(C(=O)O)CCS2(=O)=O
22,148,CN(C)C(=O)Nc1coc2ccccc2c1=O
23,249 to 250,CC(=O)Nc1cccc(-c2cnc3[nH]cc(C(=O)C(C)(C)C)c3n2)c1

row,melting point [°C],SMILES
1,160 to 163,Oc1ccc(C(c2ccc(O)cc2)c2ccccc2CN2CCCc3ccccc32)cc1
2,155 to 156,CN(C)c1c(O)ccc2c1CCC1C2CCC2(C)C(=O)CCC12 (centres undefined)
3,184 to 186,Cc1ccc2cc([N+](=O)[O-])c3ccc(C)nc3c2n1
4,144 to 146,CCOC(=O)c1ccc(-c2ccc(O)cc2)cc1
5,150 to 151,CCCc1c(Cc2ccccc2C(=O)O)cccc1OCCCOc1cc(O)c(-c2ccc(F)cc2)cc1CC
6,126 to 127,CCS(=O)(=O)c1cc(C(=O)NCC2CCCN2C)c(OC)cc1N (centres undefined)
7,92 to 93,O=C1CCCN1C(=O)Oc1ccccc1Cl
8,85 to 87,COc1ccc(Sc2ccc(CC(=O)O)cc2)cc1
9,191 to 192,NC(CCN(CCC(N)=NO)CCN(CCC(N)=NO)CCC(N)=NO)=NO
10,198 to 200,COC(=O)Cn1c(-c2ccccc2Cl)nc2cccnc21
11,124,CCOC(=O)[C@](CC(=O)OC1CC(C)CCC1C(C)C)(NC(=O)OCc1ccccc1)C(N)=O (some centres undefined)
12,93.5 to 94.5,CCc1c(C(N)=O)sc(SC)c1-c1oncc1C
13,158 to 159,O=C(O)c1c[nH]c2c(OCC3CN(Cc4ccccc4)CCN3Cc3ccccc3)c(F)c(F)cc2c1=O (centres undefined)
14,133 to 135,CCC(NCC(F)(F)F)c1ccc(Cl)c2nc3n(c12)CCCN3c1ccc(Cl)cc1Cl (centres undefined)
15,231 to 233,C[C@H]1CCCN(C(=O)[C@@H]2Cc3ccccc3N2c2ccc(=O)n(C)n2)C1
16,111 to 114,Cc1cc(C(O)(C(F)(F)F)C(F)(F)F)cc(C)c1NCCC#N
17,82 to 84,CCCCCCCCSc1ccc(CC(NC(C)=O)(C(=O)OCC)C(=O)OCC)cc1
18,232 to 234,COc1ccc(-c2coc(C(=O)O)cc2=O)cc1
19,252 to 257,COCCNC(=O)Nc1nc2ccc(Sc3nnc4ccccn34)cc2s1
20,167 to 168,O=C(Nc1ccc(F)cc1)c1cccc([N+](=O)[O-])c1
21,> 300,NNc1cc2ccccc2cc1C(=O)O

row,SMILES,melting point [°C]
1,CC(C)c1noc(-c2ncn3c2[C@@H]2CCCN2C(=O)c2c(Cl)cccc2-3)n1,187 to 188
2,CN(Cc1ccc(Cl)nc1)C(N)=N[N+](=O)[O-],158
